Assay results as given in PubChem BioAssay AID330 (DTP/NCI, 2004).
Values joined by “and” are separate entries in the source; they are usually repeats but may differ in a detail not shown here. Identical values can stand only once. Toxic doses and inconclusive results are not listed. How the source made its calls: active means survival T/C of 150% or more; inactive means T/C below 125% in these data.

Tested on: P388 leukemia ip, CD2F1 mice, survival T/C
Test: NCI In Vivo Anticancer Drug Screen. Data for tumor model P388 Leukemia (intraperitoneal) in CD2F1 (CDF1) mice
Details: endpoint: median survival time, higher = longer survival
Summary of the method: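 Mice carrying the transplanted tumor received test compound or vehicle. Survival was recorded in each group, and the value is the treated-group measurement divided by that of the vehicle-treated control group.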

[1] = dose: 50.0 mg/kg/injection, schedule: Q01DX009 (ip), vehicle: saline
[2] = dose: 100.0 mg/kg/injection, schedule: Q01DX009 (ip), vehicle: saline
[3] = dose: 200.0 mg/kg/injection, schedule: Q01DX009 (ip), vehicle: saline
[4] = dose: 100.0 mg/kg/injection, schedule: Q04DX003 (ip), vehicle: saline
[5] = dose: 200.0 mg/kg/injection, schedule: Q04DX003 (ip), vehicle: saline
[6] = dose: 400.0 mg/kg/injection, schedule: Q04DX003 (ip), vehicle: saline
[7] = dose: 100.0 mg/kg/injection, schedule: Q04DX002 (ip), vehicle: saline
[8] = dose: 100.0 mg/kg/injection, schedule: Q04DX003 (ip), vehicle: suspension in saline
[9] = dose: 200.0 mg/kg/injection, schedule: Q04DX003 (ip), vehicle: suspension in saline
[10] = dose: 400.0 mg/kg/injection, schedule: Q04DX003 (ip), vehicle: suspension in saline

Measured: T/C

CCC(=[Se])N(CC)CC
inactive: dose: 0.39 mg/kg/injection, schedule: Q01DX009 (ip), vehicle: Klucel (hydroxypropylcellulose) (HPC) 98 % of control | dose: 0.78 mg/kg/injection, schedule: Q01DX009 (ip), vehicle: Klucel (hydroxypropylcellulose) (HPC) 102 % of control | dose: 1.56 mg/kg/injection, schedule: Q01DX009 (ip), vehicle: Klucel (hydroxypropylcellulose) (HPC) 99 % of control | dose: 6.25 mg/kg/injection, schedule: Q01DX009 (ip), vehicle: Klucel (hydroxypropylcellulose) (HPC) 100 % of control

CC(C)C1[C@H]2OC(=O)[C@@H]1C1CCC3CN(C)C2C31C (some centres undefined)
inactive: dose: 1.25 mg/kg/injection, schedule: Q01DX005 (ip), vehicle: Klucel (hydroxypropylcellulose) (HPC) 99 % of control | dose: 2.5 mg/kg/injection, schedule: Q01DX005 (ip), vehicle: Klucel (hydroxypropylcellulose) (HPC) 99 % of control | dose: 5.0 mg/kg/injection, schedule: Q01DX005 (ip), vehicle: Klucel (hydroxypropylcellulose) (HPC) 96 % of control | dose: 10.0 mg/kg/injection, schedule: Q01DX005 (ip), vehicle: Klucel (hydroxypropylcellulose) (HPC) 95 % of control

COc1cc(-c2coc3cc(O)ccc3c2=O)c(O)c(OC)c1OC
inactive: dose: 100.0 mg/kg/injection, schedule: Q01DX001 (ip), vehicle: Klucel (hydroxypropylcellulose) (HPC) 101 % of control | dose: 200.0 mg/kg/injection, schedule: Q01DX001 (ip), vehicle: Klucel (hydroxypropylcellulose) (HPC) 101 % of control | dose: 400.0 mg/kg/injection, schedule: Q01DX001 (ip), vehicle: Klucel (hydroxypropylcellulose) (HPC) 102 % of control

O=C1Cc2ccccc2C(c2ccc(Cl)cc2Cl)N1 (centres undefined)
inactive: [1] 98 % of control | [2] 98 % of control | [3] 100 % of control

CCCNC(=S)N/N=C\C(C)=N\Nc1ccc(Cl)cc1
inactive: [4] 95 % of control | [5] 96 % of control | [6] 97 % of control

CC1=CC(=O)[C@@H](O)[C@]2(C)[C@H]3[C@@]4(O)OC[C@]35[C@H]([C@@H](C)[C@H]4O)[C@@H](OC(=O)CC(C)C)C(=O)O[C@@H]5C[C@@H]12
inactive: dose: 0.5 mg/kg/injection, schedule: Q01DX005 (ip), vehicle: saline + alcohol 104 % of control and 122 % of control | dose: 1.0 mg/kg/injection, schedule: Q01DX005 (ip), vehicle: saline + alcohol 112 % of control

CC(C(=O)O)S(=O)(=O)C(C)C(=O)O (centres undefined)
inactive: [7] 98 % of control | dose: 200.0 mg/kg/injection, schedule: Q04DX002 (ip), vehicle: saline 91 % of control

COP(=O)(CC(=O)CCCCCO[Si](C)(C)C(C)(C)C)OC
inactive: dose: 60.0 mg/kg/injection, schedule: Q01DX005 (ip), vehicle: saline 98 % of control | dose: 120.0 mg/kg/injection, schedule: Q01DX005 (ip), vehicle: saline 99 % of control | dose: 240.0 mg/kg/injection, schedule: Q01DX005 (ip), vehicle: saline 100 % of control

Nc1c(/C=C/c2ccccc2)[nH]c(=O)[nH]c1=O
inactive: dose: 25.0 mg/kg/injection, schedule: Q04DX002 (ip), vehicle: saline 104 % of control | dose: 50.0 mg/kg/injection, schedule: Q04DX002 (ip), vehicle: saline 105 % of control | [7] 121 % of control and 88 % of control

Cc1cccc(NC(=O)CS)n1
inactive: dose: 25.0 mg/kg/injection, schedule: Q01DX009 (ip), vehicle: Klucel (hydroxypropylcellulose) (HPC) 98 % of control | dose: 50.0 mg/kg/injection, schedule: Q01DX009 (ip), vehicle: Klucel (hydroxypropylcellulose) (HPC) 95 % of control

CCCCC(CC)CS(=O)(=O)OCCCCOS(=O)(=O)CC(CC)CCCC (centres undefined)
inactive: dose: 50.0 mg/kg/injection, schedule: Q01DX005 (ip), vehicle: Klucel (hydroxypropylcellulose) (HPC) 101 % of control | dose: 100.0 mg/kg/injection, schedule: Q01DX005 (ip), vehicle: Klucel (hydroxypropylcellulose) (HPC) 105 % of control | dose: 200.0 mg/kg/injection, schedule: Q01DX005 (ip), vehicle: Klucel (hydroxypropylcellulose) (HPC) 108 % of control

O=C(O)CCCc1ccc2ccc3cccc4ccc1c2c34
inactive: dose: 50.0 mg/kg/injection, schedule: Q01DX005 (ip), vehicle: saline with Tween-80 102 % of control | dose: 100.0 mg/kg/injection, schedule: Q01DX005 (ip), vehicle: saline with Tween-80 98 % of control | dose: 200.0 mg/kg/injection, schedule: Q01DX005 (ip), vehicle: saline with Tween-80 100 % of control

COc1ccccc1C1C2CCCC(C2O)C(c2ccccc2OC)N1C (centres undefined)
inactive: [4] 99 % of control and 92 % of control | [8] 100 % of control | [5] 98 % of control and 102 % of control | [9] 107 % of control | [6] 98 % of control and 94 % of control | [10] 99 % of control

C[N+](C)(C)CCCCCCN
inactive: [1] 102 % of control | [2] 97 % of control

CSCC1Cc2ccccc2N=C(c2ccccc2)O1 (centres undefined)
inactive: dose: 100.0 mg/kg/injection, schedule: Q01DX001 (ip), vehicle: saline with Tween-80 100 % of control | dose: 200.0 mg/kg/injection, schedule: Q01DX001 (ip), vehicle: saline with Tween-80 97 % of control | dose: 400.0 mg/kg/injection, schedule: Q01DX001 (ip), vehicle: saline with Tween-80 100 % of control

O=C(Nc1ccccc1)c1ccccc1C(O)(c1ccccc1)c1ccc(Cl)cc1 (centres undefined)
inactive: dose: 100.0 mg/kg/injection, schedule: Q01DX009 (ip), vehicle: saline with Tween-80 95 % of control | dose: 200.0 mg/kg/injection, schedule: Q01DX009 (ip), vehicle: saline with Tween-80 90 % of control | dose: 400.0 mg/kg/injection, schedule: Q01DX009 (ip), vehicle: saline with Tween-80 90 % of control

NC(N)=NOCC[C@@H](N)C(=O)O
inactive: dose: 50.0 mg/kg/injection, schedule: Q01DX005 (ip), vehicle: saline 100 % of control | dose: 100.0 mg/kg/injection, schedule: Q01DX005 (ip), vehicle: saline 99 % of control | dose: 200.0 mg/kg/injection, schedule: Q01DX005 (ip), vehicle: saline 101 % of control | dose: 400.0 mg/kg/injection, schedule: Q01DX005 (ip), vehicle: saline 91 % of control | dose: 1000.0 mg/kg/injection, schedule: Q01DX001 (ip), vehicle: saline 95 % of control

C1N2CN3CN1CP(C2)C3
inactive: [1] 112 % of control | [2] 115 % of control | [3] 106 % of control

CCOC(=O)CNCc1cccnc1
inactive: dose: 12.5 mg/kg/injection, schedule: Q04DX003 (ip), vehicle: saline 103 % of control | dose: 25.0 mg/kg/injection, schedule: Q04DX003 (ip), vehicle: saline 106 % of control and 94 % of control | dose: 50.0 mg/kg/injection, schedule: Q04DX003 (ip), vehicle: saline 100 % of control and 103 % of control | [4] 104 % of control and 94 % of control | [5] 97 % of control

O=C1NC2CCCC1C(c1ccccc1Cl)NC2c1ccccc1Cl (centres undefined)
inactive: [8] 98 % of control | [9] 100 % of control | [10] 100 % of control

C[n+]1ccc(C#N)c(C#N)c1
inactive: dose: 3.75 mg/kg/injection, schedule: Q01DX005 (ip), vehicle: Klucel (hydroxypropylcellulose) (HPC) 102 % of control | dose: 7.5 mg/kg/injection, schedule: Q01DX005 (ip), vehicle: Klucel (hydroxypropylcellulose) (HPC) 116 % of control | dose: 15.0 mg/kg/injection, schedule: Q01DX005 (ip), vehicle: Klucel (hydroxypropylcellulose) (HPC) 103 % of control | dose: 30.0 mg/kg/injection, schedule: Q01DX005 (ip), vehicle: Klucel (hydroxypropylcellulose) (HPC) 108 % of control and 110 % of control

CC(C)=CCc1c(C)c(O)c(C)c(C)c1O
inactive: dose: 12.5 mg/kg/injection, schedule: Q01DX009 (ip), vehicle: distilled water + Tween-80 + alcohol 100 % of control | dose: 25.0 mg/kg/injection, schedule: Q01DX009 (ip), vehicle: distilled water + Tween-80 + alcohol 92 % of control | dose: 50.0 mg/kg/injection, schedule: Q01DX009 (ip), vehicle: distilled water + Tween-80 + alcohol 100 % of control | dose: 100.0 mg/kg/injection, schedule: Q01DX009 (ip), vehicle: distilled water + Tween-80 + alcohol 95 % of control | dose: 200.0 mg/kg/injection, schedule: Q01DX009 (ip), vehicle: distilled water + Tween-80 + alcohol 104 % of control
